Key:
youth with ASD [1] = assay: 12-week RCT: safety and tolerability (treatment-emergent AEs, vital signs, early terminations, rescue medication); assay type: in vivo, human
Protocol: This study was a 12-week, randomized, double-blind, placebo-controlled, parallel group clinical trial of memantine in youth with ASD. Youth with ASD who met the eligibility criteria were randomized to receive either memantine or placebo during the course of the 12-week trial. Participants underwent multimodal MRI scans prior to and upon completion of the 12-week trial. Participants were assessed weekly during the titration phase (baseline to Week 4) and at midpoint (Week 6), Week 9, and completion (Week 12) during the maintenance phase. At each study visit, safety and efficacy were assessed by administering measures of efficacy (CGI, GAF), tolerability (assessing treatment-emergent AEs), and safety (vital signs, including weight). At baseline, midpoint, and endpoint (completion/early termination) severity of autism was assessed by administering measures of autism severity (SRS-2, ABC-SW, CY-BOCS-PDD) and associated psychopathology (ADHD-RS, CDRS-R, CASI-ANX).
Safety and tolerability of memantine was monitored by administering a complete physical examination, battery of blood tests (complete blood count, electrolytes, liver function test, thyroid function test, and random glucose levels), Urine tests (drug screen and pregnancy screen [women of child-bearing potential only]), and EKG at baseline and endpoint of the trial, and by recording treatment-emergent AEs and obtaining vital signs (pulse, blood pressure, weight) at each study visit.
Safety results were summarized descriptively by treatment group and baseline glutamate activity level (high versus normal) and compared at the end of the study using Fisher's exact or Pearson's chi-square tests. All analyses were performed using Stata (Version 16) (StataCorp, Stata Statistical Software: Release 16. College Station, TX: StataCorp LLC. 2019).

youth with ASD [2] = assay: Treatment response based on baseline PgACC glutamate activity (high vs normal; treatment group-by-glutamate-by-visit interaction); assay type: in vivo, human; conditions: for Mean # of AEs / # of Participants with AEs / Treatment-Limiting AEs: TOLERABILITY
Protocol: The primary outcome was analyzed using Pearson's chi-square test at the a priori defined significance level of 0.05. Secondary measures of efficacy were analyzed using mixed-effects regression models with robust standard errors to account for the repeated measures on each subject. The primary and secondary measures were compared between memantine versus placebo as well as between those with high versus normal baseline glutamate activity levels. Participants were categorized as having high versus normal glutamate activity levels at baseline using z-scores. The population mean and SD for z-score calculations were derived from healthy control glutamate activity levels (baseline and endpoint). Glutamate activity levels with z-scores≥1 were categorized as high glutamate activity levels, those with z-scores<1 and >−1 were categorized as normal glutamate activity levels and those with z-scores≤−1 were categorized as low glutamate activity levels. Changes in PgACC glutamate activity levels within groups were tested using paired t-tests and changes between groups were tested using two-sample t-tests. We also performed ROC curve analyses to determine the predictive utility of baseline PgACC glutamate activity levels in identifying treatment responders within the memantine and placebo groups. All analyses apart from the analysis of the primary outcome were considered exploratory. Analyses were performed using a modified intent-to-treat analysis set which included all randomized patients who were regarded exposed to study medication (completed at least two weeks of treatment) and had at least one follow-up assessment.
The mixed-effects regression models used to analyze the secondary measures of efficacy predicted the outcome measure from treatment group (memantine versus placebo), study visit (continuous), and the treatment group-by-study visit interaction, which is our test of efficacy. To examine the effect of baseline PgACC glutamate activity level on the response to treatment, we predicted outcomes measures from treatment group, study visit (continuous), PgACC glutamate activity level (continuous), treatment group-by-study visit interaction, glutamate activity level-by-study visit interaction, treatment group-by-glutamate activity level interaction, and treatment group-by-glutamate activity level-by-study visit interaction. All mixed-effects regression models had random intercepts by subject ID, used robust standard errors to account for the repeated measures on each subject, and used an independent covariance structure for the random effects. […] All missing data were assumed to be missing at random.
Effect sizes are presented as standardized mean differences (SMD) for continuous outcomes and odds ratios (OR) for dichotomous outcomes. The SMDs for the difference of the changes in scores over time between memantine and placebo and between high glutamate and normal glutamate were calculated as Cohen's d using the following calculations: the difference in the change scores between the two groups divided by the pooled standard deviation. The SMDs for changes in scores within groups were calculated as Cohen's d using the following calculation: difference in score from baseline to endpoint divided by the pooled standard deviation. For comparisons of memantine versus placebo and high glutamate versus normal glutamate, positive SMDs and ORs>1 indicate better improvement in the memantine group and high glutamate group, respectively. For comparisons of ASD versus healthy controls, positive SMDs indicate lower glutamate activity levels in the ASD group. As defined by Cohen (Statistical Power Analysis for the Behavioral Sciences. 2nd ed. Hillsdale, NJ: Erlbaum. 1988), a SMD=0.2 is interpreted as a small effect size, SMD=0.5 as medium, and SMD=0.8 as large. We considered ORs>2 to be clinically meaningful.

[3] = HIGH glutamate activity levels, MEM N = 10
[4] = NORMAL glutamate activity levels, MEM N = 5
[5] = NORMAL glutamate activity levels, MEM N = 8

## CC12CC3CC(C)(C1)CC(N)(C3)C2 [MEM, memantine]
Youth with ASD [1]; Glu Based Sample [MEM] High [N = 10]
  Mean # of AEs: 2.4 ± 1.3
Youth with ASD [1]; Glu Based Sample [MEM] Normal [N = 8]
  Mean # of AEs: 2.8 ± 1.0
Youth with ASD [1]; Unselected Sample MEM [N = 21]
  Early Terminations: Treatment Limiting AEs: Four
  Mean # of AEs: 2.2 ± 1.2
  Participants completed trial (12 weeks): 16 N
  Severe AEs: Two
  Severe AEs: Headache: 5%
  Severe AEs: Irritability + Agitation (Worsening): 5%
Youth with ASD [2]; [3]
  ABC-Social Withdrawal MD: −8.5 ± 7.6
  ADHD-RS MD: −9.9 ± 11.7
  CASI-ANX MD: −10.3 ± 5.1
  CDRS-R MD: −9.8 ± 11.2
  CGI-1≤2: 9 (90) N (%)
  CY-BOCS-PDD MD: −0.5 ± 1.6
  GAF MD: 9.1 ± 5.4
  SRS-Autistic Mannerisms MD: −10.3 ± 5.3
  SRS-SCI MD: −39.8 ± 21.1
  SRS-Social Awareness MD: −5.0 ± 4.2
  SRS-Social Cognition MD: −8.1 ± 5.8
  SRS-Social Communication MD: −17.9 ± 7.7
  SRS-Social Motivation MD: −8.8 ± 5.3
  SRS-Total MD: −50.1 ± 25.7
  ≥25% ↓↓SRS: 9 N
  ≥25% ↓↓SRS + CGI-I ≤ 2: 8 (80) N (%)
  # of Participants with AEs: 7 (70) N (%)
  Treatment-Limiting AEs: 0 (0) N (%)
Youth with ASD [2]; [4]
  ABC-Social Withdrawal MD: −3.6 ± 5.6
  ADHD-RS MD: −8.2 ± 7.4
  CASI-ANX MD: −2.4 ± 5.2
  CDRS-R MD: −8.0 ± 11.8
  CGI-≤2: 3 (60) N (%)
  CY-BOCS-PDD MD: −2.0 ± 2.8
  GAF MD: 4.6 ± 4.3
  SRS-Autistic Mannerisms MD: −1.8 ± 5.1
  SRS-SCI MD: −9.2 ± 5.3
  SRS-Social Awareness MD: −0.8 ± 1.8
  SRS-Social Cognition MD: −2.0 ± 2.6
  SRS-Social Communication MD: −2.8 ± 2.7
  SRS-Social Motivation MD: −3.0 ± 4.0
  SRS-Total MD: −10.6 ± 10.6
  ≥25% WISRS±CGI-1≤2: 0 (0) N (%)
  ≥25% WLSRS: 0 (0) N (%)
Youth with ASD [2]; HIGH glutamate activity levels, MEM N = 7
  Mean # of AEs: 2.4 ± 1.3
Youth with ASD [2]; NORMAL glutamate activity levels, MEM N = 6
  Mean # of AEs: 2.8 ± 1.0
Youth with ASD [2]; [5]
  # of Participants with AEs: 4 (50) N (%)
  Treatment-Limiting AEs: 2 (25) N (%)
Youth with ASD [2]; memantine group
  Association of higher baseline PgACC glutamate activity levels with change scores (SRS Total, SRS-SCI, ABC-Social Withdrawal): greater change scores

— patent US20240130675A1, “Methods for Treating Autism Spectrum Disorder” (The General Hospital Corporation, priority 2021, published 2024)
